According to ChEMBL document CHEMBL1123416, “Imidazo[2,1-b]benzothiazoles. 2. New immunosuppressive agents” (1986):
Several values for one entry are separate records, joined by “and”; a condition that tells them apart may be missing. Identical values can stand only once.

Experiments:
Type in all cases: functional
Mus musculus [1] = test: Effect on the plaque forming cell formation in BDF1 mice after peroral administration at dose of 100 mg/kg; conditions: route oral
Mus musculus [2] = test: Effect on the plaque forming cell formation in BDF1 mice after peroral administration at dose of 300 mg/kg; conditions: route oral
Mus musculus [3] = test: Compound was tested for its significant suppressive activity of delayed type hypersensitivity (DTH) with out inhibition of humoral immunity in mice by oral administration at dose of 25 mg/kg
Mus musculus [4] = test: Significant suppressive activity of delayed type hypersensitivity (DTH) with out inhibition of humoral immunity in mice by oral administration at dose of 50 mg/kg
Mus musculus [5] = test: Compound was tested for its significant suppressive activity of delayed type hypersensitivity (DTH) with out inhibition of humoral immunity in mice by oral administration at dose of 200 mg/kg
Mus musculus [6] = test: Compound was tested for its significant suppressive activity of delayed type hypersensitivity (DTH) with out inhibition of humoral immunity in mice by oral administration at dose of 100 mg/kg
Mus musculus [7] = test: Effect on the plaque forming cell formation in BDF1 mice after peroral administration at dose of 30 mg/kg; conditions: route oral
Mus musculus [8] = test: Effect on the plaque forming cell formation in BDF1 mice after peroral administration at dose of 10 mg/kg; conditions: route oral
Mus musculus [9] = test: Significant suppressive activity of delayed type hypersensitivity (DTH) with out inhibition of humoral immunity in mice by oral administration at dose of 400 mg/kg

With Oc1cccc(-c2cn3c(n2)sc2ccccc23)c1 the PFC/splleen (Mus musculus [1]) was 0.198, the PFC/splleen (Mus musculus [2]) was 0.182 and the “Increase in ear thickness” value (Mus musculus [3]) was 5.3 1/100mm. For the same molecule, the inhibition in vivo at 50 mg/kg (Mus musculus [4]) was 37.1%, the “Increase in ear thickness” value (Mus musculus [4]; 50 mg/kg) was 3.4 1/100mm and 3.9 1/100mm and the “Increase in ear thickness” value (Mus musculus [5]) was 2.8 1/100mm. For the same molecule, the inhibition in vivo at 200 mg/kg (Mus musculus [5]) was 54.8%, the “Increase in ear thickness” value (Mus musculus [6]) was 2.4 1/100mm and the inhibition in vivo at 100 mg/kg (Mus musculus [6]) was 61.3%. The PFC/splleen (Mus musculus [7]) was 0.138, the PFC/splleen (Mus musculus [8]) was 0.177 and the inhibition in vivo at 400 mg/kg (Mus musculus [9]) was 79%. The “Increase in ear thickness” value (Mus musculus [9]; 400 mg/kg) was 0.9 1/100mm and 1.3 1/100mm.
